Test results: ChEMBL document CHEMBL1126154, “Pyrrole mannich bases as potential antipsychotic agents” (J Med Chem, 1992)

Key:
[1] = species: Rattus norvegicus; test: ED50 value for catalepsy indicates the dose required to produce a 50% of maximum catalepsy score. parentheses value indicate 95% confidence limit.; format: functional
[2] = target: T1, Adrenergic receptor alpha-1 (Rattus norvegicus, UniProt P15823+P23944+P43140); test: The compound was tested for its binding affinity towards Alpha-1 adrenergic receptor by displacing [3H]WB-4101 radioligand in rat cerebral cortex; format: tissue-based
T1 sequence (P15823 whole entry): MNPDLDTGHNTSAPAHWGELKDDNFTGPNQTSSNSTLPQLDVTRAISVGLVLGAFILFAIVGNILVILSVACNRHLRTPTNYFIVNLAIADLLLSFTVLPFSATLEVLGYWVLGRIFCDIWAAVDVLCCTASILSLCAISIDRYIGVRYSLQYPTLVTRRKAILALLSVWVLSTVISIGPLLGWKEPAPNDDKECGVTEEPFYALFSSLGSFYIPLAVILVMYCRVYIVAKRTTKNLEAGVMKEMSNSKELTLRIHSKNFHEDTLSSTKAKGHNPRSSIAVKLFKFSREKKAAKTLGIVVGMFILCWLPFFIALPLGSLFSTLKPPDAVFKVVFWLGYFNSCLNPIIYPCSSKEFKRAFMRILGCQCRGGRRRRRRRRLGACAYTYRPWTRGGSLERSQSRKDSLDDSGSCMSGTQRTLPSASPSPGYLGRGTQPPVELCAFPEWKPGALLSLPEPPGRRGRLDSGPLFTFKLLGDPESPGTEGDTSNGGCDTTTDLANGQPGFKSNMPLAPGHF
T1 sequence (P23944 whole entry): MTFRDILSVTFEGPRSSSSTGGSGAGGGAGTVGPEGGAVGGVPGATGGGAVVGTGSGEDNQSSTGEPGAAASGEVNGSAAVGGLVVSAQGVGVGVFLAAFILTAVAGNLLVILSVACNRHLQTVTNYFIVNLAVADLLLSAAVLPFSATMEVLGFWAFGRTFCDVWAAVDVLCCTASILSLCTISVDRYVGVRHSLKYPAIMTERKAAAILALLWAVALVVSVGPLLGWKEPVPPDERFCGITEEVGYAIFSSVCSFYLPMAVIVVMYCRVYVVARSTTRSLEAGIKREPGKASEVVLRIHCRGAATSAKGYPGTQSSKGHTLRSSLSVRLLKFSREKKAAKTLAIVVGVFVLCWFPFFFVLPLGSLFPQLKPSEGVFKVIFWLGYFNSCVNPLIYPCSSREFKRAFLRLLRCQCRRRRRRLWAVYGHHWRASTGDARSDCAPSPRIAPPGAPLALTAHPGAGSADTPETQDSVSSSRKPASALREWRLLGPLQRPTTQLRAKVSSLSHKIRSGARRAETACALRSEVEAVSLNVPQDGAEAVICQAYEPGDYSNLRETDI
T1 sequence (P43140 whole entry): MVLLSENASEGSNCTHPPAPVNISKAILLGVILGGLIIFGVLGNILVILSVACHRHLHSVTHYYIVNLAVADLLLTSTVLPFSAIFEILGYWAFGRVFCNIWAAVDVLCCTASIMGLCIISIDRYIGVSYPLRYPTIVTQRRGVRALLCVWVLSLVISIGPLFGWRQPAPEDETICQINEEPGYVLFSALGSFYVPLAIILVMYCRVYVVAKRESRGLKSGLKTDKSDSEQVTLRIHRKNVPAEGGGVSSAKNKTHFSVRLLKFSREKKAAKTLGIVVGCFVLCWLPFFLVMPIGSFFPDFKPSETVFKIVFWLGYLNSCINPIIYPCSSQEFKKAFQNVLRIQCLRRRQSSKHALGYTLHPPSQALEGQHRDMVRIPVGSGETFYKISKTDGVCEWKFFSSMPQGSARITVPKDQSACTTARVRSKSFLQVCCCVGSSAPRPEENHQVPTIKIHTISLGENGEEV

[3] = target: T2, Serotonin 1 (5-HT1) receptor (Rattus norvegicus, UniProt P28564+P30940+P19327+P28565); test: The compound was tested for its binding affinity towards 5-hydroxytryptamine 1 receptor by displacing [3H]5-HT radioligand in rat cerebral cortex; format: tissue-based
[4] = target: Serotonin 2 (5-HT2) receptor (Rattus norvegicus, UniProt P30994+P08909+P14842); test: The compound was tested for its binding affinity towards 5-hydroxytryptamine 2 receptor by displacing [3H]ketanserin radioligand in rat cerebral cortex; format: tissue-based
[5] = test system: Rattus norvegicus; test: Antipsychotic activity at a dose 10 times the ED50 value for CAR block for production of catalepsy in the rat (following i.p. dosing); format: functional; settings: ip
[6] = species: Rattus norvegicus; test: (§1) ED50 value for catalepsy indicates the dose required to produce a 50% of maximum catalepsy score; format: functional
[7] = target: T3, 5-hydroxytryptamine receptor 1A (Rattus norvegicus, UniProt P19327); test: Binding affinity towards 5-hydroxytryptamine 1A receptor by displacing [3H]WB-4101 from rat hippocampus; format: tissue-based
T3 sequence (P19327 whole entry): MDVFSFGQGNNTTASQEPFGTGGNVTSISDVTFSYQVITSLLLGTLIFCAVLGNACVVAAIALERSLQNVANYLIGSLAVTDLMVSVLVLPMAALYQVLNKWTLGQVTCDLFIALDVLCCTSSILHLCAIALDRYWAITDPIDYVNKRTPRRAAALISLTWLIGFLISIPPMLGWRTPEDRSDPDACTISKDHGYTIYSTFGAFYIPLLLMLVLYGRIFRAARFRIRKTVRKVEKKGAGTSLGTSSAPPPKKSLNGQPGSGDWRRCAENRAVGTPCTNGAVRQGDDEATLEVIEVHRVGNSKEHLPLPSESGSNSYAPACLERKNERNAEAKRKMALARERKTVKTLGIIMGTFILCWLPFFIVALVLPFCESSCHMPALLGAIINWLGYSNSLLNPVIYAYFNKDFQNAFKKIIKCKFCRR

[8] = test system: Rattus norvegicus; test: The percentage production of catalepsy in rat at a dose of 40 mg/kg ip.; format: functional
[9] = test system: Rattus norvegicus; test: The compound was measured at a dose 10 times the ED50 value for CAR block for production of catalepsy in the rat via oral administration.; format: functional; settings: Rattus norvegicus, po; read-out: ED50
[10] = target: 5-hydroxytryptamine receptor 1B (Rattus norvegicus, UniProt P28564); test: The compound was tested for its binding affinity towards 5-hydroxytryptamine 1B receptor by displacing [3H]serotonin radioligand in rat cerebral cortex; format: tissue-based
Chain of 5-hydroxytryptamine receptor 1B (P28564 whole entry): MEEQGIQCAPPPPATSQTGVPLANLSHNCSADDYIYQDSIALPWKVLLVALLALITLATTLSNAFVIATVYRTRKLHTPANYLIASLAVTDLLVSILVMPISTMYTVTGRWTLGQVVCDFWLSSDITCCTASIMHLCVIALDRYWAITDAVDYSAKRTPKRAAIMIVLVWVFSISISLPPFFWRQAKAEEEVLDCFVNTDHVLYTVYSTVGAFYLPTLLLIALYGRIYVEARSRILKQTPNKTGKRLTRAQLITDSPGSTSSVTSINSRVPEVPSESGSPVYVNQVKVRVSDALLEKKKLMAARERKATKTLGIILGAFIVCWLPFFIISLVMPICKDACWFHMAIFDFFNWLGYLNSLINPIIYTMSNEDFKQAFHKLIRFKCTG

[11] = test system: Rattus norvegicus; test: The percentage production of catalepsy in rat at a dose of 25 mg/kg ip.; format: functional
[12] = test system: Rattus norvegicus; test: The percentage production of catalepsy in rat at a dose of 58 mg/kg ip.; format: functional
[13] = target: T2, Serotonin 1 (5-HT1) receptor
Description: The binding affinity was measured on serotonin 5-hydroxytryptamine 1 receptor in rat brain tissue

[14] = target: T3, 5-hydroxytryptamine receptor 1A; test: biochemical
Description: The compound was tested for its binding affinity towards 5-hydroxytryptamine 1A receptor by displacing [3H]WB-4101 radioligand in rat hippocampus

[15] = species: Rattus norvegicus; test: as §1; format: functional, organism-based
[16] = test system: Rattus norvegicus; test: The percentage production of catalepsy in rat at a dose of 4 mg/kg ip.; format: functional
[17] = species: Rattus norvegicus; test: The compound was measured at a dose 10 times the ED50 value for CAR block for production of catalepsy in the rat; format: functional, organism-based

| Compound | Ki [2] [µM] | Ki [3] [µM] | Ki [4] [µM] | ED50 [5] [mg/kg] | other results |
| --- | --- | --- | --- | --- | --- |
| O=C(CCCN1CCC(O)(c2ccc(Cl)cc2)CC1)c1ccc(F)cc1 [HALOPERIDOL] |  |  |  |  | ED50 [1]: 0.36 mg/kg |
| Cn1c(CN2CCN(c3cccc([N+](=O)[O-])c3)CC2)ccc1CN1CCCC1=O | > 0.1 | > 1 | > 0.1 | 15 |  |
| O=C1CC2(CCCC2)CC(=O)N1CCCCN1CCN(c2ncccn2)CC1 [BUSPIRONE] |  |  |  | 4.5 |  |
| CN1CCN(CCCN2c3ccccc3Sc3ccc(C(F)(F)F)cc32)CC1 [TRIFLUOPERAZINE] | 0.0293 | > 1 |  | 0.5 | ED50 [6]: 1.7 mg/kg; Ki [7]: 0.411 µM |
| CC(C)Oc1ccccc1N1CCN(Cc2ccc(CN3CCCCCCC3=O)n2C)CC1 | 0.0208 | 0.0181 | 0.26 | 4 | % catalepsy at 40 mg/kg [8]: 4.2%; ED50 [9]: > 30 mg/kg; Ki [10]: 0.075 µM; Ki [7]: 0.0017 µM |
| O=C1CCCN1Cc1ccc(CN2CCN(c3ccccc3)CC2)[nH]1 |  |  |  | > 15 |  |
| CCc1ccccc1N1CCN(Cc2ccc(CN3CCCCC3=O)n2C)CC1 | 0.0113 | 0.0273 | 0.355 | > 15 | Ki [10]: 0.1 µM; Ki [7]: 0.03 µM |
| COc1ccccc1N1CCN(Cc2ccc(CN3CCCCCC3=O)n2C)CC1 | 0.0437 | 0.12 | 0.669 | 2.1 | % catalepsy at 25 mg/kg [11]: 51%; ED50 [9]: 30.5 mg/kg |
| CCN1CCC[C@H]1CNC(=O)c1cc(S(N)(=O)=O)ccc1OC [LEVOSULPIRIDE] | > 1 |  |  | > 40 | ED50 [6]: > 40 mg/kg |
| CCc1ccccc1N1CCN(Cc2ccc(CN3CCCC3=O)n2C)CC1 | 0.0382 | 0.304 | 0.227 | 15 |  |
| COc1ccccc1N1CCN(Cc2ccc(CN3CCCC3=O)n2-c2ccccc2)CC1 | 0.1 |  |  | > 15 |  |
| Cn1c(CN2CCN(c3cccc(F)c3)CC2)ccc1CN1CCCC1=O | > 0.1 | 1 | > 0.1 | > 15 |  |
| Cn1c(CN2CCN(c3cccc(C(F)(F)F)c3)CC2)ccc1CN1CCCC1=O | > 1 | 0.156 | 1 | 5.8 | % catalepsy at 58 mg/kg [12]: 56% |
| CCCCc1ccccc1N1CCN(Cc2ccc(CN3CCCC3=O)n2C)CC1 |  |  |  | > 15 |  |
| CN(C)CCCN1c2ccccc2Sc2ccc(Cl)cc21 [CHLORPROMAZINE] |  |  |  | 1.9 | Ki [13]: > 1 µM; ED50 [1]: 9.4 mg/kg; Ki [14]: 0.179 µM |
| Cc1nc2n(c(=O)c1CCN1CCC(c3noc4cc(F)ccc34)CC1)CCCC2 [RISPERIDONE] |  |  |  |  | ED50 [15]: 3.5 mg/kg; ED50 [9]: 2.2 mg/kg; % catalepsy at 4 mg/kg [16]: 50%; ED50 [17]: 0.32 mg/kg |
| CCCCOc1ccccc1N1CCN(Cc2ccc(CN3CCCCCC3=O)n2C)CC1 | 0.0157 | 0.0589 | 0.237 | > 15 |  |

| Compound | Ki [2] [µM] | Ki [3] [µM] | Ki [4] [µM] | ED50 [5] [mg/kg] | other results |
| --- | --- | --- | --- | --- | --- |
| Cn1c(CN2CCN(c3ccccc3O)CC2)ccc1CN1CCCC1=O | 0.14 |  |  | > 15 |  |
| Cc1ccccc1N1CCN(Cc2ccc(CN3CCCC3=O)n2C)CC1 | 0.136 | 1 |  | > 15 |  |
| Cn1c(CN2CCN(c3cccc(Cl)c3)CC2)ccc1CN1CCCC1=O | 0.264 | 0.196 | 0.256 | 12.3 |  |
| Cn1c(CN2CCN(c3cccc([N+](=O)[O-])c3)CC2)ccc1CN1CCCCC1=O |  |  | 0.669 | > 15 |  |
| CC(C)c1ccccc1N1CCN(Cc2ccc(CN3CCCCCCC3=O)n2C)CC1 | 0.0359 | 0.0502 | 0.196 | > 15 |  |
| Cn1c(CN2CCN(c3ccccc3)CC2)ccc1CN1CCCC1=O | 0.436 |  |  | > 15 |  |
| COc1ccccc1N1CCN(Cc2ccc(CN3CCCC3=O)[nH]2)CC1 | 0.0431 | 0.148 | 1 | > 15 |  |
| COc1cccc(N2CCN(Cc3ccc(CN4CCCC4=O)n3C)CC2)c1 | 1 | > 1 |  | > 7.5 |  |
| CC(C)c1ccccc1N1CCN(Cc2ccc(CN3CCCC3=O)n2C)CC1 | 0.02 | 0.076 | 0.409 | 5.8 |  |
| COc1ccccc1N1CCN(Cc2ccc(CN3CCCCC3=O)n2C)CC1 | 0.166 | 0.139 |  | 2.3 | % catalepsy at 25 mg/kg [11]: 39.8%; ED50 [9]: 9.7 mg/kg |
| CC(C)Oc1ccccc1N1CCN(Cc2ccc(CN3CCCCC3=O)[nH]2)CC1 | 0.0052 | 0.0331 | 0.0553 | 4 | % catalepsy at 40 mg/kg [8]: 10%; Ki [7]: 0.0054 µM |
| COc1ccccc1N1CCN(Cc2ccc(CN3CCCCCCC3=O)n2C)CC1 | 0.0231 | 0.041 | 1 | 8.2 | % catalepsy at 25 mg/kg [11]: 16.3%; ED50 [9]: > 27 mg/kg |
| Cn1c(CN2CCN(c3ccccc3Cl)CC2)ccc1CN1CCCC1=O | 0.0531 |  |  | > 15 |  |
| CCCc1ccccc1N1CCN(Cc2ccc(CN3CCCC3=O)n2C)CC1 | 0.0266 | 0.283 | 0.317 | > 30 |  |
| Cn1c(CN2CCN(c3ccccc3C#N)CC2)ccc1CN1CCCC1=O | 0.0637 | 0.14 |  | > 15 |  |
| COc1ccccc1N1CCN(Cc2ccc(CN3CCCC3=O)n2C)CC1 | 0.0449 | 0.185 | > 1 | 2.1 | % catalepsy at 25 mg/kg [11]: 31%; ED50 [9]: > 20 mg/kg; Ki [7]: 0.0172 µM |
